The values that follow come from the supplement of paper PMC10290057.

Where a name gives a salt, the structure may show the parent alone.
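Also: Luminescence-based viability readout, five doses per compound, normalized against on-plate DMSO and empty-well controls, followed by dose-response curve fitting for every drug.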

In this assay the test system is HCT116. The assay is described as follows: efficacy (fitted maximal change in viability relative to DMSO control); higher = less cytotoxic (negative = loss of viability). To be noted: 48 h.
Turning to `OC1=CC2=C(C(=C1)O)C(=O)\C(=C(/O2)C3=CC(=C(O)C(=C3)O)O)O` [Myricetin], the efficacy is -26.3%.

For the compound `COc1ccc(C(=O)N2CCN(C(=O)/C=C/c3ccc(Br)cc3)CC2)cc1` [NIBR-189], the efficacy is -15.1%.

For `NC(=O)c1cc(F)cc2c1C(=O)N(C1CCN(C3CCC(F)(F)CC3)CC1)C2` [NMS-P118], the efficacy was -18.7%.

Take `Oc1nc(-c2ccc(C(F)(F)F)cc2)nc2c1CSCC2` [NVP-XAV-939]: the efficacy is -13.5%.

As to `CC(C)NC(=O)N1CC[C@@H](C1)NC/2=N/C3=C(C=CC(=C3)F)N(CC(F)F)C4=C2C=C(Cl)C=C4` [NVS-PAK1-1], the efficacy was -21.2%.

As to `N=C(N)Nc1ccc(C(=O)Oc2ccc3cc(C(=N)N)ccc3c2)cc1` [Nafamostat mesilate], the efficacy was -24.8%.

`CC(C)(C)C(=O)CN1C(=O)[C@H](NC(=O)Nc2cccc(C(=O)O)c2)CN(C2CCCCC2)c2ccccc21` [Nastorazepide]: the efficacy is -4.67%.

As for `CC(C)C1CCC(C(=O)N[C@H](Cc2ccccc2)C(=O)O)CC1` (some centres not stated) [Nateglinide], the efficacy is -11%.

`CN1C(=O)N[C@H](Cc2c[nH]c3c(Cl)cccc23)C1=O` [Necrostatin 2]: the efficacy came to 15%.

For the compound `CN1C(=O)C(Cc2c[nH]c3ccccc23)NC1=S` (configuration not stated) [Necrostatin-1], the efficacy is -7.49%.

With `Cc1cccc(C)c1NC(=O)CN1CCCC1=O` [Nefiracetam], the efficacy was -20.6%.

Consider `NCC/1=C/NC(=S)N1[C@H]2CCC3=C(F)C=C(F)C=C3C2` [Nepicastat hydrochloride], for which the efficacy is -46.6%.

As to `CNC(=O)c1c(-c2ccc(F)cc2)oc2cc(N(CCO)[S+](C)(=O)[O-])c(C3CC3)cc12` [Nesbuvir], the efficacy is -8.31%.

As to `CN1C(=O)/C=C(/NCCN(CCO)CCCC2=CC=C(C=C2)[N+]([O-])=O)N(C)C1=O` [Nifekalant], the efficacy was -10%.

For `CC1(C)NC(=O)N(c2ccc([N+](=O)[O-])c(C(F)(F)F)c2)C1=O` [Nilutamide], the efficacy is -35.5%.

With `C[S+](=O)([O-])Nc1ccc([N+](=O)[O-])cc1Oc1ccccc1` [Nimesulide], the efficacy was -15.6%.

As to `O=[N+]([O-])c1cncn1CCN1CCOCC1` [Nimorazole], the efficacy was -10.3%.

For the compound `NC[C@H](O)c1ccc(O)c(O)c1` [Noradrenaline bitartrate monohydrate], the efficacy stood at 10.7%.

For `CCN1\C=C(\C(O)=O)C(=O)C2=C1C=C(N3CCNCC3)C(=C2)F` [Norfloxacin], the efficacy was determined as 9.53%.

`CO[C@@H]1[C@@H](OC(N)=O)[C@@H](O)[C@H](OC2=CC=C3\C(=C(NC(=O)C4=CC=C([O-])C(=C4)CC=C(C)C)/C(=O)OC3=C2C)O)OC1(C)C` [Novobiocin sodium]: the efficacy came to 3.79%.

On to `Nc1nc(OCc2ccccc2)c2nc[nH]c2n1` [O6-Benzylguanine], for which the efficacy is -34.3%.

With `CN1CCN(CC1)C2=C(NC(=O)C/3=C/NC(=O)/C=C3C(F)(F)F)C=C(C=C2)C4=CC(=CC=C4)CN5CCOCC5` [OICR-9429], the efficacy is -23.2%.

For the compound `CC#CC(=O)N1CC[C@@H](n2c(=O)n(-c3ccc(Oc4ccccc4)cc3)c3c(N)ncnc32)C1` [ONO-4059 (GS-4059)], the efficacy was -53.5%.

Regarding `C=CC(=O)N1CCC[C@H](n2c(=O)n(-c3ccc(Oc4ccccc4)cc3)c3c(N)ncnc32)C1` [ONO-4059 analog], the efficacy is -67.4%.

With `CCOCOC[C@H](C[C@H](C)C(=O)NO)NC(=O)c1ccc(Oc2ccccc2)cc1` [ONO-4817], the efficacy is -33.1%.

On to `CN(C)CCNC(=O)COc1c2cccc1Cc1cccc(c1OCC(=O)NCCN(C)C)Cc1cccc(c1OCC(=O)NCCN(C)C)Cc1cccc(c1OCC(=O)NCCN(C)C)C2` [OTX-008], for which the efficacy is -46.7%.

For `CCC(CCCC)COC(=O)C(\C#N)=C(\c1ccccc1)c2ccccc2` (configuration not stated) [Octocrylene], the efficacy was -31.5%.
